Source: paper PMC10579241, “Impact of trifluoromethyl and sulfonyl groups on the biological activity of novel aryl-urea derivatives: synthesis, in-vitro, in-silico and SAR studies” (Scientific Reports, 2023)
In brackets after ≈: the same amount, converted by molar mass. Like-named read-outs stand apart in the source and are kept apart here. Marks after values point to notes of the source that are not given here.

Legend:
HCT116 [1] = assay: DNA damage, comet assay, HCT116; type: cell-based, human
Escherichia coli = assay: MIC by serial dilution (agar wells), E. coli; type: cell-based
Candida albicans [2] = assay: MIC by serial dilution (agar wells), C. albicans; type: cell-based
Bacillus mycoides [3] = assay: microbe, parasite or virus in culture; type: cell-based
[4] = test system: hepatocellular carcinoma cell line (HePG2); assay: cells; type: cell-based; settings: Homo sapiens, 48 h
prostate cancer (PC3) = assay: cells; type: cell-based; settings: Homo sapiens, 48 h
[5] = test system: normal skin fibroblast cell line (BJ1); assay: cells; type: cell-based; settings: Homo sapiens, Skin fibroblast, MTT, 48 h
in vitro = type: cell-based; settings: human, BJ1 normal skin fibroblast cells, 100 μg/mL
HCT116 [6] = assay: DNA fragmentation assay, HCT116; type: cell-based, human
Candida albicans [7] = assay: Agar well diffusion, C. albicans; type: cell-based
colon cancer (HCT116) = assay: cells; type: cell-based; settings: Homo sapiens
BRCA1 = assay: qRT-PCR, BRCA1 in PC3 cells; type: cell-based, human; settings: versus negative samples
PC3 [8] = assay: DNA damage, comet assay, PC3; type: cell-based, human
PACA2 [9] = assay: DNA damage, comet assay, PACA2; type: cell-based, human
BRCA2 = assay: qRT-PCR, BRCA2 in PC3 cells; type: cell-based, human; settings: versus negative samples
[10] = test system: osteosarcoma cell line (HOS); assay: cells; type: cell-based; settings: 48 h; for IC50: MTT
Bacillus mycoides [11] = assay: microbe, parasite or virus in culture; type: cell-based; remark: listed apart in the source
skin cancer (A431) = assay: cells; type: cell-based; settings: Homo sapiens, A-431, 100 μg/mL, 48 h
FASN = assay: qRT-PCR, FASN in HCT116 cells; type: cell-based, human; settings: versus negative samples
[12] = test system: human lung carcinoma (A549); assay: cells; type: cell-based
PC3 [13] = assay: DNA fragmentation assay, PC3; type: cell-based, human
PACA2 [14] = assay: DNA fragmentation assay, PACA2; type: cell-based, human
PALB2 = assay: qRT-PCR, PALB2 in PACA2 cells; type: cell-based, human; settings: versus negative untreated sample
CDKN2A = assay: qRT-PCR, CDKN2A in PACA2 cells; type: cell-based, human; settings: versus negative untreated sample
[15] = 0.00488 mg/mL, 150 µL in DMSO, 15 mm agar well
[16] = 0.00975 mg/mL, 150 µL in DMSO, 15 mm agar well
[17] = 0.0195 mg/mL, 150 µL in DMSO, 15 mm agar well
[18] = 0.0391 mg/mL, 150 µL in DMSO, 15 mm agar well
[19] = 0.0781 mg/mL, 150 µL in DMSO, 15 mm agar well
[20] = 0.1563 mg/mL, 150 µL in DMSO, 15 mm agar well
[21] = 0.3125 mg/mL, 150 µL in DMSO, 15 mm agar well
[22] = 0.625 mg/mL, 150 µL in DMSO, 15 mm agar well
[23] = 1.25 mg/mL, 150 µL in DMSO, 15 mm agar well
[24] = 2.50 mg/mL, 150 µL in DMSO, 15 mm agar well
[25] = 5.00 mg/mL, 150 µL in DMSO, 15 mm agar well
[26] = 10.0 mg/mL, 150 µL in DMSO, 15 mm agar well
[27] = read-out: Minimum inhibition concentration (MIC)

Cc1ccc(S(=O)(=O)NC(=O)Nc2ccc(C(F)(F)F)cc2)cc1 [Compound 7, 4-Methyl-N-[(4-{trifluoromethyl}phenyl)carbamoyl]benzenesulfonamide]
DNA damaged cells % (mean ± SEM) (HCT116 [1]): 25.56 ± 0.66^a %
Class 0 (no tail), number of cells (HCT116 [1]; of 400 cells analyzed): 298
Class 1 (tail length < diameter of nucleus), number of cells (HCT116 [1]; of 400 cells analyzed): 29
Class 2 (tail length between 1 and 2 × the diameter of nucleus), number of cells (HCT116 [1]; of 400 cells analyzed): 38
Class 3 (tail length > 2 × the diameter of nucleus), number of cells (HCT116 [1]; of 400 cells analyzed): 35
No. of cells, Comets (HCT116 [1]; of 400 cells analyzed): 102
zone of inhibition at 4.88 µg/mL (Escherichia coli; [15]): 15 mm
zone of inhibition at 9.75 µg/mL (Escherichia coli; [16]): 16 mm
zone of inhibition at 19.5 µg/mL (Escherichia coli; [17]): 17 mm
zone of inhibition at 39.1 µg/mL (Escherichia coli; [18]): 18 mm
zone of inhibition at 78.1 µg/mL (Escherichia coli; [19]): 19 mm
zone of inhibition at 156.3 µg/mL (Escherichia coli; [20]): 20 mm
zone of inhibition at 312.5 µg/mL (Escherichia coli; [21]): 22 mm
zone of inhibition at 625 µg/mL (Escherichia coli; [22]): 23 mm
zone of inhibition at 1250 µg/mL (Escherichia coli; [23]): 25 mm
zone of inhibition at 2500 µg/mL (Escherichia coli; [24]): 26 mm
zone of inhibition at 5000 µg/mL (Escherichia coli; [25]): 27 mm
zone of inhibition at 10000 µg/mL (Escherichia coli; [26]): 28 mm
MIC (Escherichia coli; [27]): 4.88 µg/mL (≈ 13.6 µM)
zone of inhibition at 4.88 µg/mL (Candida albicans [2]; [15]): 16 mm
zone of inhibition at 9.75 µg/mL (Candida albicans [2]; [16]): 17 mm
zone of inhibition at 19.5 µg/mL (Candida albicans [2]; [17]): 17 mm
zone of inhibition at 39.1 µg/mL (Candida albicans [2]; [18]): 17 mm
zone of inhibition at 78.1 µg/mL (Candida albicans [2]; [19]): 17 mm
zone of inhibition at 156.3 µg/mL (Candida albicans [2]; [20]): 18 mm
zone of inhibition at 312.5 µg/mL (Candida albicans [2]; [21]): 19 mm
zone of inhibition at 625 µg/mL (Candida albicans [2]; [22]): 22 mm
zone of inhibition at 1250 µg/mL (Candida albicans [2]; [23]): 25 mm
zone of inhibition at 2500 µg/mL (Candida albicans [2]; [24]): 27 mm
zone of inhibition at 5000 µg/mL (Candida albicans [2]; [25]): 28 mm
zone of inhibition at 10000 µg/mL (Candida albicans [2]; [26]): 29 mm
MIC (Candida albicans [2]; [27]): 4.88 µg/mL (≈ 13.6 µM)
zone of inhibition at 4.88 µg/mL (Bacillus mycoides [3]; read-out: Inhibition zone): 0 mm
zone of inhibition at 9.75 µg/mL (Bacillus mycoides [3]; read-out: Inhibition zone): 15 mm
zone of inhibition at 19.5 µg/mL (Bacillus mycoides [3]; read-out: Inhibition zone): 15 mm
zone of inhibition at 39.1 µg/mL (Bacillus mycoides [3]; read-out: Inhibition zone): 16 mm
zone of inhibition at 78.1 µg/mL (Bacillus mycoides [3]; read-out: Inhibition zone): 16 mm
zone of inhibition at 156.3 µg/mL (Bacillus mycoides [3]; read-out: Inhibition zone): 18 mm
zone of inhibition at 312.5 µg/mL (Bacillus mycoides [3]; read-out: Inhibition zone): 20 mm
zone of inhibition at 625 µg/mL (Bacillus mycoides [3]; read-out: Inhibition zone): 24 mm
zone of inhibition at 1250 µg/mL (Bacillus mycoides [3]; read-out: Inhibition zone): 26 mm
zone of inhibition at 2500 µg/mL (Bacillus mycoides [3]; read-out: Inhibition zone): 27 mm
zone of inhibition at 5000 µg/mL (Bacillus mycoides [3]; read-out: Inhibition zone): 28 mm
zone of inhibition at 10000 µg/mL (Bacillus mycoides [3]; read-out: Inhibition zone): 29 mm
MIC (Bacillus mycoides [3]; [27]): 9.75 µg/mL (≈ 27.2 µM)
mortality at 100 µg/mL ([4]; 100 μg/mL): 100%
IC50 ([4]; MTT): 97.4 ± 1.11 µM
mortality at 100 µg/mL (prostate cancer (PC3); 100 μg/mL): 100%
IC50 (prostate cancer (PC3); MTT): 91.3 ± 0.28 µM
IC50 [5]: 48.8 ± 0.26 µM
mortality at 48 h, 100 µg/mL (in vitro): 12.3 ± 1.12%
Change (DNA fragmentation versus untreated cells) (HCT116 [6]): 26.20
DNA fragmentation % M ± SEM (HCT116 [6]; IC50 concentration, 24 h): 37.1 ± 0.52^a %
Inhibition (HCT116 [6]; doxorubicin = 0.00): 24.76
Inhibition zones diameter (Candida albicans [7]; C. albicans, 200 μL of 10 mg/mL in DMSO in 15 mm holes, overnight 37 °C): 37 ± 1.20 mm
zone of inhibition at 10000 µg/mL (Candida albicans [7]; Candida albicans, read-out: Inhibition zones diameter): 37 mm
mortality at 100 µg/mL (colon cancer (HCT116); HCT-116, 48 h, 100 μg/mL): 100%
IC50 (colon cancer (HCT116); HCT-116, MTT, 48 h): 93.5 ± 1.4 µM
BRCA1 gene expression level (BRCA1): decreased significantly
DNA damaged cells % (mean ± SEM) (PC3 [8]): 25.78 ± 1.44^a %
Class 0 (no tail), number of cells (PC3 [8]; of 400 cells analyzed): 297
Class 1 (tail length < diameter of nucleus), number of cells (PC3 [8]; of 400 cells analyzed): 38
Class 2 (tail length between 1 and 2 × the diameter of nucleus), number of cells (PC3 [8]; of 400 cells analyzed): 36
Class 3 (tail length > 2 × the diameter of nucleus), number of cells (PC3 [8]; of 400 cells analyzed): 29
No. of cells, Comets (PC3 [8]; of 400 cells analyzed): 103
DNA damaged cells % (mean ± SEM) (PACA2 [9]): 23.52 ± 0.65^a %
Class 0 (no tail), number of cells (PACA2 [9]; of 400 cells analyzed): 306
Class 1 (tail length < diameter of nucleus), number of cells (PACA2 [9]; of 400 cells analyzed): 35
Class 2 (tail length between 1 and 2 × the diameter of nucleus), number of cells (PACA2 [9]; of 400 cells analyzed): 28
Class 3 (tail length > 2 × the diameter of nucleus), number of cells (PACA2 [9]; of 400 cells analyzed): 31
No. of cells, Comets (PACA2 [9]; of 400 cells analyzed): 94
BRCA2 gene expression level (BRCA2): decreased significantly
mortality at 100 µg/mL ([10]; Homo sapiens, 100 μg/mL): 100%
IC50 ([10]; Homo sapiens): 102 µM
IC50 [10]: 102.1 ± 0.95 µM
Inhibition zones diameter (Bacillus mycoides [11]; B. mycoides, 200 μL of 10 mg/mL in DMSO in 15 mm holes, overnight 37 °C): 36 ± 1.25 mm
zone of inhibition at 10000 µg/mL (Bacillus mycoides [11]; Bacillus mycoides, read-out: Inhibition zones diameter): 36 mm
mortality at 100 µg/mL (skin cancer (A431)): 55.4 ± 1.25%
FASN gene expression level (FASN): suppression
mortality at 100 µg/mL ([12]; A549, 48 h, 100 μg/mL): 100%
IC50 ([12]; MTT, 48 h): 86.5 ± 1.4 µM
Change (DNA fragmentation versus untreated cells) (PC3 [13]): 24.5
DNA fragmentation % M ± SEM (PC3 [13]; IC50 concentration, 24 h): 36.1 ± 0.60^a %
Inhibition (PC3 [13]; doxorubicin = 0.0): 21.89
Change (DNA fragmentation versus untreated cells) (PACA2 [14]): 23.10
DNA fragmentation % M ± SEM (PACA2 [14]; IC50 concentration, 24 h): 35.2 ± 0.68^a %
Inhibition (PACA2 [14]; doxorubicin = 0.0): 28.33
PALB2 gene expression level (PALB2): significantly reduced
CDKN2A gene expression level (CDKN2A): significantly reduced
